From patent US10264789B2, “Rodentia animal repellent” (SUMITOMO CHEMICAL COMPANY, LIMITED, priority 2014, dated 2019) come the findings set out here.

This test has as its system female mouse (Jcl: ICR lineage). In words: Repellent test (Experimental Example 1, two-section feed choice apparatus). Type of test: in vivo. To be noted: drug amount 0.5 g on one sheet of filter paper. Here is the method:
Experimental Example 1 (Test Animal: Mouse)
The repellent test was performed using the repellent test apparatus described in FIG. 1. The apparatus has a residential section for the test animal in the center part, test section 1 and test section 2 setting food on both ends, test section 1 and the residential section are connected by a cylindrical path (diameter 0.05 m, length 2.08 m), and test section 2 and the residential section are also connected by a cylindrical path. The test section 1 and test section 2 are resin cuboid shape (0.68 m×0.40 m×0.32 m) containers, and the connection parts with the paths are opened. The residential section is also a resin cuboid shape (0.28 m×0.45 m×0.16 m), and the upper part made of an iron net so that the air can be taken in. An openable door is set in the connection part between the residential section and the path. Chips for floor:clean chip SP (manufactured by CLEA Japan, Inc.) were spread all over the bottom part of the residential section.
An acclimation operation was performed before the repellent test to make the test animal experienced with the test apparatus.
A weighed feed (solid food CE-2 for breeding and raising, manufactured by CLEA Japan, Inc.) (initial feed weight about 10 g) was set in each of test section 1 and test section 2, one female mouse (Jcl: ICR lineage) was placed in the residential section. One day later, the feed remaining in both test sections was weighed, and the eating rate was calculated by the following formula. When the eating rates of the both test sections are considerably different, the feed was changed to a new one, and the acclimation operation was repeated for several days until the eating rate was stabilized, and the eating rates of the both test sections became almost equivalent. eating rate (%)=100×amount eaten (g)/initial feed weight (g) <Repellent Test>
After completion of the acclimation operation, the same feed (solid food CE-2 for breeding and raising, manufactured by CLEA Japan, Inc.) (about 10 g) was placed in the both test sections. […] After 1 hr from setting the filter paper, the door of the connection part between the residential section and the path was closed, and thereafter the door was opened. After lapse of one day from the start of the test, the feed remaining in the both test sections was weighed. When the test was continued for not less than one day, the feed in the both test sections was exchanged every other day, and the remaining feed was weighed every day.
The repellent rate was calculated by the following formula. The test section where the filter paper (diameter 70 mm, manufactured by Advantec Toyo Kaisha, Ltd.) treated with the test compound was set was taken as the treatment section, and the test section where the filter paper was not set was taken as the non-treatment section. repellent rate (%)=100×(amount eaten in non-treatment section−amount eaten in treatment section)/(amount eaten in non-treatment section+amount eaten in treatment section)

`c1ccc2scnc2c1` [Comparison compound C, reference compound]: under “number of observation days 1”, the “repellent rate (%)” value was found to be 4%. On the same count and under the same terms, the result for `Sc1nc2ccccc2s1` [comparison compound A, reference compound] reads 0%; that for `c1ccc(-c2nc3ccccc3s2)cc1` [comparison compound B, reference compound], 0%.

For `CC(C)Cc1nc2ccccc2s1` [present compound 5, 2-isobutyl-1,3-benzothiazole], the “repellent rate (%)” value (number of observation days 1) was found to be 94%. Turning to `FC(F)(F)c1nc2ccccc2s1` [present compound 6, 2-trifluoromethyl-1,3-benzothiazole], the “repellent rate (%)” value (number of observation days 1) is listed as 100%. Take `Cc1nc2c(C)cccc2s1` [present compound 13, 2,4-dimethyl-1,3-benzothiazole]: the “repellent rate (%)” value reads like this: (number of observation days 1) 100%; (number of observation days 3) 100%. With `CC1(C)Nc2ccccc2S1` [present compound 14, 2,2-dimethyl-2,3-dihydro-1,3-benzothiazole], the “repellent rate (%)” value was 100% (number of observation days 1) and 92% (number of observation days 3).
